What all share (type): binding
Data set [1] has as its target biotinylated HSA (HSAB) (Homo sapiens, UniProt P02768). The experiment in a line: DSC thermograms of biotinylated HSA (HSAB) with ligands. The settings on record: HSAB, measured versus calculated composite curves (FIG. 23).
The target of data set [2] is HSA (Homo sapiens, UniProt P02768). Nature of the data set: Capture of DNA from plasma with biotinylated HSA capture reagent, gel electrophoresis. Also noted: purchased Sigma Aldrich (HSA); biotinylated in house (Thermo Fisher Scientific 21217); Pierce streptavidin magnetic beads (Thermo Scientific 88816). The conditions noted are these: salt washes. On the procedure: Gel electrophoresis: DNA samples collected at different steps of the capture procedure were analyzed by electrophoresis on polyacrylamide gels. All electrophoresis experiments were performed using Lonza PAGEr™ Gold Precast Gels: Gradient, 10×10 cm, 8-16%, purchased from Thermo-Fisher (BMA59519). Each supernatant fraction collected at different steps of the capture procedure were suspended in TAE running buffer and analyzed. In a typical experiment, 25 μL total volume of solution was loaded per lane (well capacity). Gels were run in TAE buffer (40 mM Tris, 20 mM Acetic Acid, 0.4 mM EDTA) at a constant current of 20 mA for approximately three hours. Gels for analysis of DNA were stained with Stains-all solution, destained in water, removed, visualized and imaged on a flat-bed scanner. Gels for analysis of hot labeled cy5′-25MER DNA were visualized using a Typhoon™ Trio+phosphorimager (GE Healthcare).
Sequence of HSA (P02768 25-609): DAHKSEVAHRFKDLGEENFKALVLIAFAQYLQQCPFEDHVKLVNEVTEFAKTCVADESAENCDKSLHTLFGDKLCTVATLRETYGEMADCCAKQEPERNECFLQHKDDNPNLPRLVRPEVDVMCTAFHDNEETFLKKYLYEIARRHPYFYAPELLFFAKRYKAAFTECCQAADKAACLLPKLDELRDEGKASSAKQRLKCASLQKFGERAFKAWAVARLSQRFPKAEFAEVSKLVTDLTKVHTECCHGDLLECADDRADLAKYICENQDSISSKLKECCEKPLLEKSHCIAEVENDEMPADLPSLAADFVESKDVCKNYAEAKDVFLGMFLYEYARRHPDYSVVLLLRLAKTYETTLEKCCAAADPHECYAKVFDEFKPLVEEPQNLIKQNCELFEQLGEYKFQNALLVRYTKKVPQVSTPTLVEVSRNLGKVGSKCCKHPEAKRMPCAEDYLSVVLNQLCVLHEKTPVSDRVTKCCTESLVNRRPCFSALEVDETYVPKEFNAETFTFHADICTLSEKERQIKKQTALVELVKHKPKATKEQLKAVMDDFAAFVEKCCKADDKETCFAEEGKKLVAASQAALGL
Capture strategy: In some examples, biotinylated HSA acts as an affinity reagent for ligands in plasma that bind HSA. In the capture step, streptavidin coated magnetic beads are attached to biotinylated HSA then inserted into plasma. With application of a magnetic field, ligand-bound biotinylated HSA is retrieved. Captured HSA contains bound plasma components (ligands).
Ligand recovery: In the capture process, HSA-bound components are washed off the capture reagent. […]

Data set [3] deals with human plasma. Nature of the data set: DSC thermograms of plasma with ligand. The conditions noted are these: plasma, measured versus calculated composite curves (FIG. 22).

Sequence of biotinylated HSA (HSAB) (P02768 25-609): as above

Consider “ssDNA: 25-base single strand DNA 25R, 5′-CGACATGACCTTGTCGCTAACATCC-3′ (DNA CGACATGACCTTGTCGCTAACATCC; DNA, backbone and methylation of C not given here)”, for which the “interaction judged by effect on the thermogram” value in data set [1] and in data set [3] was “interact very weakly” each time. For the same substance, the “binding to HSA by gel analysis” value in data set [2] was “detectable, but weak”.

The record behind these values is patent publication US20220091128A1, “SYSTEM AND METHOD FOR LIGAND THERMAL ANALYSIS” (Portland State University, priority 2019, published 2022).
